What all share (format): cell-based
In experiment [1] the target is T1, human TASK-1 (Homo sapiens (Human), UniProt O14649). Put plainly: Two-electrode voltage clamp of human TASK-1 channels expressed in Xenopus laevis oocytes. The procedure: (§1) B-1. In Vitro Electrophysiological Analysis of the Human TASK-1 and TASK-3 Channels Via Two-Electrode Voltage Clamp Technique in Xenopus laevis Oocytes
(§2) Xenopus laevis oocytes were selected as described elsewhere by way of illustration [Decher et al., FEBS Lett. 492, 84-89 (2001)]. Subsequently, the oocytes were injected with 0.5-5 ng of a cRNA solution coding for TASK-1 or TASK-3. For the electrophysiological analysis of the channel proteins expressed in the oocytes, the two-electrode voltage clamp technique [Stiihmer, Methods Enzymol. 207, 319-339 (1992)] was used. The measurements were conducted as described [Decher et al., FEBS Lett. 492, 84-89 (2001)] at room temperature (21-22° C.) using a Turbo TEC 10CD amplifier (NPI), recorded at 2 kHz and filtered with 0.4 kHz. Substance administration was performed using a gravitation-driven perfusion system. Here, the oocyte is located in a measuring chamber and exposed to the solution stream of 10 ml/min. The level in the measuring chamber is monitored and regulated by sucking off the solution using a peristaltic pump.

Experiment [2] has as its target T2, human TASK-3 (Homo sapiens (Human), UniProt Q9NPC2). Kind of experiment: Two-electrode voltage clamp of human TASK-3 channels expressed in Xenopus laevis oocytes. On the procedure:
as §1, §2

Experiment [3] concerns the target T2, human TASK-3. Put plainly: Inhibition of recombinant TASK-3 in stably transfected CHO cells (voltage-sensitive dye, 40 mM KCl depolarization). Particulars: 40 mM potassium chloride. On the procedure:
(§3) B-2. Inhibition of Recombinant TASK-1 and TASK-3 In Vitro
(§4) The investigations on the inhibition of the recombinant TASK-1 and TASK-3 channels were conducted using stably transfected CHO cells. The compounds according to the invention were tested in this case by application of 40 mM potassium chloride in the presence of a voltage-sensitive dye according to the methods described in detail in the following references [Whiteaker et al., Validation of FLIPR membrane potential dye for high-throughput screening of potassium channel modulators, J. Biomol. Screen. 6 (5), 305-312 (2001); Molecular Devices FLIPR Application Note: Measuring membrane potential using the FLIPR® membrane potential assay kit on Fluorometric Imaging Plate Reader (FLIPR®) systems, http://www.moleculardevices.com/reagents-supplies/assay-kits/ion-channels/flipr-membrane-potential-assay-kits]. The activity of the test substances was determined as their ability to inhibit a depolarization induced in the recombinant cells by 40 mM potassium chloride. The concentration which can block half of this depolarization is referred to as IC50.

The target of experiment [4] is T1, human TASK-1. Kind of experiment: Inhibition of recombinant TASK-1 in stably transfected CHO cells (voltage-sensitive dye, 40 mM KCl depolarization). Conditions: 40 mM potassium chloride. The procedure: as §3, §4

T1 sequence (O14649 whole entry): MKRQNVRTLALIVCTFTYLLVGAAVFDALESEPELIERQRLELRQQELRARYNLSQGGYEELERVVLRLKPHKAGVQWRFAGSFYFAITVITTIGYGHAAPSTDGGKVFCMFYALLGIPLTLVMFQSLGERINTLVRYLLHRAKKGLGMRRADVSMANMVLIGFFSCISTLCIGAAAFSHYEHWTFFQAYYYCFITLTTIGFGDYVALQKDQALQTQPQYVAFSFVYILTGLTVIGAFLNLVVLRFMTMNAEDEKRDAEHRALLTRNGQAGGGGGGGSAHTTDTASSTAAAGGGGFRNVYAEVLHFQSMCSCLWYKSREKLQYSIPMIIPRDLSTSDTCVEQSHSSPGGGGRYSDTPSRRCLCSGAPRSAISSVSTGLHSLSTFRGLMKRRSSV
T2 sequence (Q9NPC2 whole entry): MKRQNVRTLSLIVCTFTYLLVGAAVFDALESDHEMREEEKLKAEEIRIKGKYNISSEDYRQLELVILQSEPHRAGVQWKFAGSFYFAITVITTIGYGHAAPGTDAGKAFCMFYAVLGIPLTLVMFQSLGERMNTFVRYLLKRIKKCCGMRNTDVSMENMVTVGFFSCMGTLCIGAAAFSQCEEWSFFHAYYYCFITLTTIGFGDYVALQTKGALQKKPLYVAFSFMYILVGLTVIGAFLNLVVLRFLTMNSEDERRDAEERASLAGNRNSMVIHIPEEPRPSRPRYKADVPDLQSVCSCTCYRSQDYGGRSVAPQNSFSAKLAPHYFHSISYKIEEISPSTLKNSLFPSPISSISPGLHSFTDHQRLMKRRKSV

Molecule `O=C(c1ccccc1)N1CC2CN(Cc3c(-c4ccc(Cl)cc4)nc4ccc(-c5ccccc5)cn34)CC2C1` (centres unmarked) [comparative compound, reference compound] registered an IC50 in experiment [1] greater than 10000 nM. Moreover, the results for the inhibition at 1 µM in experiment [1] (1 μM) and in experiment [2] (1 μM) were 11.4 ± 1.5% and 5.6 ± 1.3%, respectively. Besides, the inhibition at 10 µM in experiment [1] (10 μM) amounted to 37.2 ± 7.5%; in experiment [2] (10 μM) it was 8.9 ± 0.9%. Further, in experiment [2], the “TASK-3 IC50” value was “inactive”.
For `COc1cccc(C(=O)N2CC3CN(Cc4c(-c5ccc(C(C)C)cc5)nc5ccccn45)CC3C2)n1` (centres unmarked) [Example 25], the IC50 in experiment [1] came out at 62.2 ± 7.9 nM; in experiment [3], 410 nM; in experiment [2] it was 44.1 ± 5.8 nM; in experiment [4], 230 nM.
For the molecule `COc1cccc(C(=O)N2CC3CN(Cc4c(-c5ccc(Cl)cc5)nc5ccccn45)CC3C2)n1` (centres unmarked) [Example 4, [5-{[2-(4-Chlorophenyl)imidazo[1,2-a]pyridin-3-yl]methyl}hexahydropyrrolo[3,4-c]pyrrol-2(1H)-yl](6-methoxypyridin-2-yl)methanone], the IC50 in experiment [1] came to 59.9 ± 16.2 nM; in experiment [3], 2300 nM; in experiment [2], 256 ± 48.8 nM; in experiment [4], 947 nM.
On the same counts, the results for `COc1cccc(C(=O)N2CC3CN(Cc4c(-c5ccc(Br)cc5)nc5ccccn45)CC3C2)c1` (centres unmarked) [Example 10] are 31.2 ± 1.7 nM, 485 nM, 970 ± 220 nM and 206 nM.
For the molecule `COc1ccc(F)cc1C(=O)N1CC2CN(Cc3c(-c4ccc(Cl)cc4)nc4ccccn34)CC2C1` (centres unmarked) [Example 19], the values for the IC50 in experiment [3] and in experiment [4] were 1500 nM and 1250 nM, respectively.
For `COc1ccc(F)cc1C(=O)N1CC2CN(Cc3c(-c4ccc(Br)cc4)nc4ccccn34)CC2C1` (centres unmarked) [Example 12], the IC50 in experiment [3] stood at 960 nM; in experiment [4] it was 1200 nM.
In the case of `COc1cccc(C(=O)N2CC3CN(Cc4c(-c5ccc(Cl)cc5)nc5ccccn45)CC3C2)c1` (centres unmarked) [Example 17], the half-maximal inhibitory concentration (IC50) in experiment [1] was 9.3 ± 2.5 nM; in experiment [3] it was 1900 nM; in experiment [2], 21.8 ± 2.2 nM; in experiment [4] it was 721 nM.
In the case of `Cc1ccccc1C(=O)N1CC2CN(Cc3c(-c4ccc(Cl)cc4)nc4ccccn34)CC2C1` (centres unmarked) [Example 20], the IC50 in experiment [3] was 2500 nM; in experiment [4], 1020 nM.
Turning to `CC(C)(C)OC(=O)N1CC2CN(Cc3c(-c4ccc(Cl)cc4)nc4ccccn34)CC2C1` (centres unmarked) [Example 1, tert-butyl 5-{[2-(4-chlorophenyl)imidazo [1,2-a]pyridin-3-yl]methyl}hexahydropyrrolo[3,4-c]pyrrole-2(1H)-carboxylate], the IC50 in experiment [3] was determined as 6100 nM; in experiment [4] it was 2410 nM.
In the case of `COc1ccc(C)c(C(=O)N2CC3CN(Cc4c(-c5ccc(Cl)cc5)nc5ccccn45)CC3C2)n1` (centres unmarked) [Example 49], the IC50 in experiment [3] amounted to 4.6 nM; in experiment [4], 94 nM.
On the same counts, the results for `O=C(Nc1cc(C(F)(F)F)ccc1Cl)N1CC2CN(Cc3c(-c4ccc(Br)cc4)nc4ccccn34)CC2C1` (centres unmarked) [Example 44] are 2000 nM and 700 nM.
The matching figures for `O=C(c1ccccc1F)N1CC2CN(Cc3c(-c4ccc(Cl)cc4)nc4ccccn34)CC2C1` (centres unmarked) [Example 14]: 3400 nM and 1060 nM.
On the same counts, the results for `O=C(N1CC2CN(Cc3c(-c4ccc(Br)cc4)nc4ccccn34)CC2C1)N1CCCc2ccccc21` (centres unmarked) [Example 30] are 1200 nM and 480 nM.

Values taken from US10414765B2, “Substituted perhydropyrrolo[3,4-c]pyrrole derivatives and the use of same” (BAYER PHARMA AKTIENGESELLSCHAFT, priority 2015, dated 2019).
